According to article PMC6023200, “High content, high-throughput screening for small molecule inducers of NF-κB translocation” (PLoS ONE, 2018):
Where two headings read alike, the source gives them in different places.

What was measured:
[1] = system: NF-κB nuclear translocation in HUVECs; experiment: NF-κB nuclear translocation assay (high content imaging, p65 NUC/CYT); format: cell-based, Human; conditions: for EC50: Homo sapiens, HUVEC; for NF-κB nuclear translocation in response to different inducers vs negative control (1% DMSO): HUVECs stimulated 30 min, 100 ng/mL LPS, 10 μM PMA, 10 μM prostratin, 10 μM calcimycin
Protocol: HUVEC cells were seeded at 2500 cells/well in 384-well plates in EBM^TM-2 Basal Medium plus 2% FBS overnight at 37°C in a humidified 5% CO2 incubator. Compounds (columns 3–22) and DMSO (columns 1, 2, 23 and 24) were added to cells using a JANUS Automated Liquid Handling Workstation (Perkin Elmer). […] Plates were incubated at 37°C for 30 min in a humidified 5% CO2 incubator following addition of compounds and controls.
All washing and immunofluorescence staining steps were performed using an EL406 Automated Washer Dispenser (Biotek). Briefly, cells were fixed with 4% paraformaldehyde at RT for 15 min. Cells were washed and incubated at RT for 30 min in 0.05% Triton X-100, 0.25% IgG-free BSA, 0.25% normal goat serum in Tris-buffered saline. Cells were stained with the p65 Mouse Monoclonal Primary Antibody (Santa Cruz, sc-8008) at a final concentration of 1 μg/mL in TBS, 0.05% Triton X-100,.25% IgG-free BSA and incubated overnight at 4°C. Cells were washed and stained with the Alexa Fluor 488 Goat anti-Mouse IgG (H+L) cross-adsorbed secondary antibody at a final concentration of 4 μg/mL in TBS, 0.05% TritonX-100, 0.25% IgG-free BSA for 1 hr at RT in the dark. Cells were washed and 1 μg/mL of DAPI added. Plates were sealed and imaged with an ImageXpress Micro XLS High Content Screening System (Molecular Devices) using FITC and DAPI channels at 20X magnification. Nine fields were captured for each well.
Images were analyzed using the MetaXpress software (Molecular Devices) by creating a custom analysis program in the Custom Module Editor. Briefly, DAPI was used to identify the nucleus of the cell and a nuclear mask created. A secondary mask was created by enlarging the nucleus mask to identify the whole cell. The whole cell mask was then overlaid on the nucleus mask to identify the cytoplasm. The average p65 (NF-κB) pixel intensities in both the nucleus and cytoplasm were quantified and a value assigned to each. A translocation value was calculated by determining the ratio of the average nuclei intensity to the average cytoplasmic intensity of p65 (NUC/CYT). For assay development, the Kruskal-Wallis non parametric test was used to compare the medians of the different groups after correcting for multiple comparison with Dunn’s multiple comparison test using GraphPad Prism 7.04 software. For assay validation, the mean (μ), standard deviation (SD) and coefficient of variation (CV) for nuclear translocation were calculated for the maximum (TNF-α) and minimum (DMSO) activation control wells, maximum and minimum activation plates as well as CVs for 320 test wells. The Z’ (measure of spread between maximum and minimum control signals) was calculated for each plate using the formula: Z^′=1−3(SDMax+SDMin)/|μMax−μMin|, where max is average maximum signal and min is average minimum signal. The EC50 was defined as the concentration that gave half the maximal response.

in vitro = conditions: human
Protocol: (§1) Cells were seeded in 384-well plates at 1800 cells per well and incubated in a humidified incubator at 37°C, 5% CO2. Compounds were solubilized in 100% DMSO and assayed using a 10-point three-fold serial dilution. Compounds were added 24 hours post cell seeding to a final assay concentration of 1% DMSO and highest compound concentration of 100 μM. CellTiter-Glo® reagent (Promega) was added to 384-well plates after a 72-hour incubation period. Relative luminescent units (RLU) were measured using a Synergy 4 plate reader (Biotek). Raw data were normalized using the average RLU value from negative control (1% DMSO) and expressed as % growth. Growth inhibition curves were fitted using the Levenberg–Marquardt algorithm. The IC50 was defined as the compound concentration that produced 50% of the growth inhibitory response.

HepG2 human cell line = experiment: HepG2 cytotoxicity assay (CellTiter-Glo); conditions: HepG2 IC50 / HUVEC EC50
Protocol: as §1

[2] = HepG2 cytotoxicity assay (CellTiter-Glo); conditions: human, HepG2 cells
Protocol: as §1

[3] = 0.5 h, NF-κB nuclear translocation, 10-point 3-fold dose response from 100 μM, 30 min, mean ± SD of three independent experiments (* N = 2), unit inferred, μM, read-out: EC50 = Activity in HUVECs
[4] = HUVECs, representative curve of three experiments, 4-parameter fit, dose response from 100μM, unit inferred, read-out: EC50 (Fig 8 dose response curve)

Molecule	EC50 [1, 3]	selectivity index (SI) = IC50/EC50 (HepG2 human cell line)	IC50 at 72 h [2]	other results
Nc1ccc2c(c1)Cc1cc([N+](=O)[O-])ccc1-2 [IDR-0113345]	8.6 ± 8.9 µM	6.3	–	IC50 (in vitro): 54 ± 5 µM
CC(=O)O[C@@]12C[C@@H](C)[C@@]3(O)[C@@H](C=C(CO)C[C@]4(O)C(=O)C(C)=C[C@@H]34)[C@@H]1C2(C)C [prostratin, reference compound]	–	–	–	NF-κB nuclear translocation in response to different inducers vs negative control (1% DMSO) ([1]; 10 ng/mL TNF-α): no difference
lipopolysaccharide [LPS, reference compound]	–	–	–	NF-κB nuclear translocation in response to different inducers vs negative control (1% DMSO) ([1]; 10 ng/mL TNF-α): no difference
CN(C)c1ccc(/C=C2\SC(=S)N(N)C2=O)cc1 [IDR-0605186]	15 ± 5.9 µM	>3.3	> 50 µM	–
COC(=O)C1=C(C)OC(N)=C(C#N)C1c1ccc(Cl)c(Cl)c1 (centres unmarked) [IDR-0122120]	6.6 ± 8.1 µM	6.1	40 ± 5 µM	–
O=c1oc2ccccc2c2nn(Cc3ccccc3)nc12 [IDR-0131600]	17 ± 3.7 µM	1.9	32 ± 0.7 µM	–
CCCCCCCCCCCCCC(=O)O[C@@H]1[C@@H](C)[C@@]2(O)[C@@H](C=C(CO)C[C@]3(O)C(=O)C(C)=C[C@@H]23)[C@@H]2C(C)(C)[C@]12OC(C)=O [PMA, phorbol myristate acetate, reference compound]	–	–	–	NF-κB nuclear translocation in response to different inducers vs negative control (1% DMSO) ([1]; 10 ng/mL TNF-α): no difference
Cc1cc(OCCCNCCO)cc(C)c1Cl [IDR-0137368]	17 ± 14 µM	1.1	19 ± 4.9 µM	–
O=C1NC(=S)SC1=Cc1ccc(O)cc1O [IDR-0133275]	18 ± 1.1 µM	>5.5	> 100 µM	–
Cc1cc(C)c2c(N)c(C(=O)c3ccc(Br)cc3)sc2n1 [IDR-0112706]	13 ± 4.5 µM	2.1	27 ± 3.5 µM	–
O=[N+]([O-])c1ccc(-c2nc(Cl)oc2-c2ccc([N+](=O)[O-])cc2)cc1 [IDR-0515158]	–	33	86 ± 17 µM	EC50 ([1]; 0.5 h, read-out: EC50 = Activity in HUVECs): 2.6 ± 0.53 µM; EC50 ([1]; read-out: EC50 (Fig 8 dose response curve)): 2.2 µM
CC(=NNc1nc(Cl)c(C#N)c(Cl)c1Cl)c1ccccn1 [IDR-0112703]	6.3 ± 6 µM	2.1	13 ± 5 µM	–
TNF-α	–	–	–	NF-κB nuclear translocation in response to different inducers vs negative control (1% DMSO) ([1]; 10 ng/mL TNF-α): most robust NF-κB nuclear translocation; time of maximum NF-κB activation post stimulation ([1]; HUVECs, 10 ng/mL TNF-α, fixed at 15, 30, 45 and 60 min): 30 min; EC50 of NF-κB nuclear translocation ([1]; HUVECs, 10-point 3-fold dilutions from 100 ng/mL, 30 min, across three independent experiments): 0.3 to 0.6 ng/mL
Oc1ccccc1/N=C/c1c(O)c(Br)cc2oc3c(c12)CCCC3 [IDR-0139144]	12 ± 10 µM	1.5	18 ± 4.2 µM	–
Cc1nn(-c2ccccc2)c2c1C(c1ccc(Cl)c(Cl)c1)C(C#N)=C(N)O2 (centres unmarked) [IDR-0516961]	25 ± 17 µM	1.8	46 ± 18 µM	–
CCOc1cc(C=C(C#N)c2nc(-c3ccc(OC)cc3)cs2)ccc1O [IDR-0605187]	5.9 ± 3.4 µM	8.6	51 ± 31 µM	EC50 [1, 4]: 3.1 µM
N#Cc1c(Cl)nc(N2CCOCC2)c(Cl)c1Cl [IDR-0112566]	3.8 ± 1.4 µM	7.4	28 ± 0.7 µM	EC50 [1, 4]: 2.1 µM
CCCCNCCCCOc1ccc2ccccc2c1 [IDR-0137875]	15 ± 3 µM	1.1	16 ± 0.71 µM	–
CCOC(=O)C(Cc1ccccc1)NC(=O)c1ccccc1 (centres unmarked) [IDR-0517069]	10 ± 1.6 µM	>10	> 100 µM	EC50 [1, 4]: 8.1 µM
CNc1ccc2oc(C[C@H]3O[C@@]4(CC[C@H]3C)O[C@H]([C@H](C)C(=O)c3ccc[nH]3)[C@H](C)C[C@H]4C)nc2c1C(=O)O [calcimycin, reference compound]	–	–	–	NF-κB nuclear translocation in response to different inducers vs negative control (1% DMSO) ([1]; 10 ng/mL TNF-α): no difference
O=C(/C=C1\C=CS(=O)(=O)C1)c1ccccc1 [IDR-0520796]	5 ± 5.6 µM	1.3	6.6 ± 1.6 µM	–
O=C1C(=Cc2ccc(-c3ccc(Cl)cc3)o2)SC(=S)N1Cc1ccco1 [IDR-0518296]	2.4 ± 1.4 µM	7.1	17 ± 12 µM	–
COc1ccc(Br)cc1/C=C(\C#N)c1nc2ccc(C)cc2[nH]1 [IDR-0605188]	4.7 ± 3.8 µM	3.6	17 ± 13 µM	–
